Measured values taken from the supplement of paper PMC10307832.

Tests used:
Assay in all cases: relative viability (nuclei count vs DMSO), 5 days (fraction); higher = more cells survive
Carboplatin + Pictilisib = compound: C1CC(C1)(C(=O)O)C(=O)O.[NH2-].[NH2-].[Pt+2] [Carboplatin] + CS(=O)(=O)N1CCN(Cc2cc3nc(-c4cccc5[nH]ncc45)nc(N4CCOCC4)c3s2)CC1 [Pictilisib] (partner 1 µM)
Outline: (§1)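 Dosing by pin tool came one day after lung cancer cell lines were seeded in 1536-well plates, using either one drug or a fixed anchor-drug dose plus five library-drug doses (not always all listed) in √10 steps. After 5 days, nuclei were counted on 4× images. Relative viability is treated-well nuclei count divided by vehicle-well nuclei count, and values are medians of duplicate plates.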

[1] = compound: C1CC(C1)(C(=O)O)C(=O)O.[NH2-].[NH2-].[Pt+2] [Carboplatin] + CC(=O)c1c(C)c2cnc(Nc3ccc(N4CCNCC4)cn3)nc2n(C2CCCC2)c1=O [Palbociclib] (partner 0.5 µM)
Outline: as §1

GSK126 + Lapatinib = compound: CC[C@H](C)N1C=C(C2=C(C=C(C=C21)C3=CN=C(C=C3)N4CCNCC4)C(=O)NCC5=C(C=C(NC5=O)C)C)C [GSK126] + CS(=O)(=O)CCNCc1ccc(-c2ccc3ncnc(Nc4ccc(OCc5cccc(F)c5)c(Cl)c4)c3c2)o1 [Lapatinib] (partner 2 µM)
Outline: as §1

GSK126 + Olaparib = compound: CC[C@H](C)N1C=C(C2=C(C=C(C=C21)C3=CN=C(C=C3)N4CCNCC4)C(=O)NCC5=C(C=C(NC5=O)C)C)C [GSK126] + O=C(c1cc(Cc2n[nH]c(=O)c3ccccc23)ccc1F)N1CCN(C(=O)C2CC2)CC1 [Olaparib] (partner 8 µM)
Outline: as §1

Row | Cell Line | relative viability (Carboplatin + Pictilisib; first compound 0.08 µM) | relative viability (Carboplatin + Pictilisib; first compound 0.253 µM) | relative viability (Carboplatin + Pictilisib; first compound 0.8 µM) | relative viability (Carboplatin + Pictilisib; first compound 2.53 µM) | relative viability (Carboplatin + Pictilisib; first compound 8 µM) | relative viability ([1]; first compound 0.08 µM) | relative viability ([1]; first compound 0.253 µM) | relative viability ([1]; first compound 0.8 µM) | relative viability ([1]; first compound 2.53 µM) | relative viability ([1]; first compound 8 µM) | relative viability (GSK126 + Lapatinib; first compound 0.08 µM) | relative viability (GSK126 + Lapatinib; first compound 0.253 µM) | relative viability (GSK126 + Lapatinib; first compound 0.8 µM) | relative viability (GSK126 + Lapatinib; first compound 2.53 µM) | relative viability (GSK126 + Lapatinib; first compound 8 µM) | relative viability (GSK126 + Olaparib; first compound 0.08 µM) | relative viability (GSK126 + Olaparib; first compound 0.253 µM) | relative viability (GSK126 + Olaparib; first compound 0.8 µM) | relative viability (GSK126 + Olaparib; first compound 2.53 µM) | relative viability (GSK126 + Olaparib; first compound 8 µM)
1 | PC-14 | 0.815 | 0.744 | 0.62 | 0.698 | 0.349 | 0.552 | 0.509 | 0.411 | 0.239 | 0.117 | 0.359 | 0.309 | 0.292 | 0.307 | 0.326 | 0.348 | 0.295 | 0.335 | 0.354 | 0.396
2 | HCC-15 | 0.781 | 0.715 | 0.749 | 0.702 | 0.498 | 0.751 | 0.721 | 0.702 | 0.615 | 0.575 | 0.841 | 0.888 | 0.806 | 0.785 | 0.727 | 0.749 | 0.776 | 0.686 | 0.608 | 0.745
3 | NCI-H2347 | 0.65 | 0.516 | 0.623 | 0.708 | 0.74 | 0.456 | 0.418 | 0.423 | 0.482 | 0.42 | 1.04 | 1.04 | 0.917 | 0.994 | 0.94 | 0.562 | 0.524 | 0.529 | 0.581 | 0.62
4 | LOU-NH91 | 0.551 | 0.57 | 0.5 | 0.525 | 0.576 | 0.539 | 0.455 | 0.44 | 0.507 | 0.515 | 0.812 | 0.77 | 0.755 | 0.882 | 0.871 | 0.938 | 0.942 | 0.879 | 0.956 | 0.887
5 | LCLC-103H | 0.65 | 0.597 | 0.613 | 0.646 | 0.611 | 0.538 | 0.469 | 0.543 | 0.431 | 0.444 |  |  |  |  |  | 0.837 | 0.791 | 0.774 | 0.792 | 0.795
6 | EMC-BAC-2 | 0.48 | 0.538 | 0.476 | 0.56 | 0.466 | 0.533 | 0.516 | 0.525 | 0.536 | 0.469 | 0.913 | 0.899 | 0.89 | 0.88 | 0.944 | 0.512 | 0.436 | 0.502 | 0.436 | 0.47
7 | NCI-H2228 | 0.547 | 0.385 | 0.446 | 0.326 | 0.312 | 0.898 | 0.841 | 0.654 | 0.737 | 0.552 | 1.11 | 1.15 | 1.06 | 1.16 | 1.33 | 0.649 | 0.75 | 0.511 | 0.669 | 0.691
8 | HOP-62 | 0.527 | 0.747 | 0.663 | 0.64 | 0.65 | 0.441 | 0.431 | 0.462 | 0.409 | 0.383 | 1.17 | 1.05 | 1.07 | 1.06 | 0.937 | 0.447 | 0.506 | 0.414 | 0.455 | 0.428
9 | NCI-H727 | 0.348 | 0.512 | 0.314 | 0.29 | 0.352 | 0.732 | 0.668 | 0.726 | 0.573 | 0.591 | 0.746 | 0.81 | 0.984 | 0.884 | 1.06 | 0.866 | 0.805 | 0.68 | 0.812 | 0.646
10 | COR-L 105 | 0.403 | 0.391 | 0.422 | 0.427 | 0.34 | 0.442 | 0.427 | 0.384 | 0.379 | 0.414 | 0.35 | 0.371 | 0.39 | 0.372 | 0.339 | 0.586 | 0.628 | 0.732 | 0.583 | 0.631
11 | NCI-H358 | 0.373 | 0.366 | 0.321 | 0.448 | 0.376 | 0.141 | 0.148 | 0.144 | 0.149 | 0.183 | 0.487 | 0.461 | 0.525 | 0.454 | 0.51 | 0.705 | 0.723 | 0.555 | 0.613 | 0.751
12 | SK-MES-1 | 0.402 | 0.272 | 0.358 | 0.328 | 0.303 | 0.354 | 0.298 | 0.316 | 0.329 | 0.315 | 0.496 | 0.455 | 0.482 | 0.431 | 0.46 | 0.798 | 0.787 | 0.721 | 0.724 | 0.657
13 | LC-2-ad | 0.669 | 0.477 | 0.436 | 0.447 | 0.399 | 0.503 | 0.561 | 0.419 | 0.466 | 0.47 | 1.05 | 1.03 | 0.9 | 0.894 | 1.05 | 0.703 | 0.698 | 0.67 | 0.712 | 0.357
